# Reference: patent publication EP0495091B1 (Metabasis Therapeutics Inc., priority 1990, dated 1992)
# Values joined by “and” are separate entries in the source; they are usually repeats but may differ in a detail not shown here. Equal entries are not always repeated. Where two headings read alike, the source gives them in different places.
# Experiments:
# [1] = system: coronary endothelial cells; assay: Inhibition of adenosine utilization in cell culture; format: cell-based; conditions: for inhibition at 5 µM / inhibition at 50 µM: Endothelial cell, read-out: Inhibition of Adenosine Utilization (%)
# Description: Inhibition of adenosine utilization was determined by measuring the concentration of extracellular adenosine by scintillation counting following separation by thin layer chromatography (TLC).
# [2] = system: longitudinal muscle from the guinea pig ileum; assay: Inhibition of stimulated contraction in isolated ileum
# Description: Parallel platinum electrodes were used to deliver electrical current at 1 minute intervals at a voltage adequate to induce contraction of 90% of maximal.
# [3] = Oral bioavailability and half-life in fasted adult beagles; conditions: dog, in vivo; for bioavailability / half-life: fasted adult beagles; for bioavailability: 10 mg/kg IV bolus and 20 mg/kg solution via stomach tube, read-out: Absolute Oral Bioavailability %
# Description: Heparinized blood and urine were collected at selected intervals over 24 hours. Each sample was chilled, centrifuged at 4°C and frozen prior to HPLC analysis.
# Isolated rat hearts = assay: Improved functional recovery in isolated hearts (Langendorff, post-ischemic LVDP); conditions: 30 min ischemia, 30 min reperfusion, number in brackets = hearts
# Description: Isolated rat hearts were cannulated via the ascending aorta and attached to a perfusion apparatus according to the method of Langendorff. The hearts were perfused at a constant pressure of 100 cm of H2O with a modified Krebs-Henseleit buffer (pH 7.4) at 37°C. As a measure of heart function, left ventricular developed pressure (LVDP) was continuously monitored. Following equilibration of the hearts for a period of 30 min., the hearts were subjected to reduced flow i.e. ischemia, by reducing the pressure to 10 cm of H2O for 30 min. Flow was then restored by returning the pressure to its original level (100 cm of H2O) for a further 30 min.
# [4] = system: platelet aggregation in human whole blood; assay: Inhibition of platelet aggregation in human whole blood; format: cell-based; conditions: 10 minutes at 37°C, 10 µM adenosine added 5 minutes before, ADP (6-25 µM) induced, impedance technique
# Description: Whole blood was drawn from healthy donors and collected in 0.1 vol. of sodium citrate to prevent coagulation. Platelet aggregation was measured by the impedance technique using a Whole Blood Aggregometer.
# [5] = system: coronary endothelial cells; assay: Adenosine release from isolated cells under net ATP breakdown; format: cell-based; conditions: 50 µM test compound
# Description: In this experimental model the cells were treated with 50 µM of the test compound and incubated for 16 hours at 37°C. Cells were then washed with phosphate-buffered saline and resuspended in standard culture medium containing no glucose (to inhibit glycolysis), 50 µM antimycin A (to inhibit oxidative phosphorylation) and 20 µM deoxycoformycin (to inhibit adenosine utilization by adenosine deaminase). This treatment was designed to simulate ischemic condition by inducing net ATP breakdown. Media was then processed for HPLC.
# ischemic rat hearts = assay: Rat heart ischemia model, tissue adenosine levels; format: in vivo, rats; conditions: intraperitoneal injection, hearts excised after 60 minutes, incubated 60 minutes at 37°C, HPLC
# Description: Male rats were injected intraperitonealy with either the AICA riboside analog, AICA riboside or saline, as a control. After 60 minutes, the hearts were excised and incubated at 37°C for a further 60 minutes. Tissue extracts were prepared and analyzed for adenosine by high performance liquid chromatography (HPLC). […]
# [6] = molecular target: T1, NBTI-specific adenosine transport site (Homo sapiens, UniProt Q99808); assay: [3H]-NBTI binding assay; conditions: 50% displacement of bound [3H]-NBTI (0.5 nM); neuronal membrane protein, 30 minutes, pH 7.4, room temperature; read-out: ED50 (the source's name)
# T1 construct: incubated for 30 minutes with 0.5 mg neuronal membrane protein together with 0.5 nM [^3H]-NBTI; from tissue
# T1 sequence (Q99808 1-456): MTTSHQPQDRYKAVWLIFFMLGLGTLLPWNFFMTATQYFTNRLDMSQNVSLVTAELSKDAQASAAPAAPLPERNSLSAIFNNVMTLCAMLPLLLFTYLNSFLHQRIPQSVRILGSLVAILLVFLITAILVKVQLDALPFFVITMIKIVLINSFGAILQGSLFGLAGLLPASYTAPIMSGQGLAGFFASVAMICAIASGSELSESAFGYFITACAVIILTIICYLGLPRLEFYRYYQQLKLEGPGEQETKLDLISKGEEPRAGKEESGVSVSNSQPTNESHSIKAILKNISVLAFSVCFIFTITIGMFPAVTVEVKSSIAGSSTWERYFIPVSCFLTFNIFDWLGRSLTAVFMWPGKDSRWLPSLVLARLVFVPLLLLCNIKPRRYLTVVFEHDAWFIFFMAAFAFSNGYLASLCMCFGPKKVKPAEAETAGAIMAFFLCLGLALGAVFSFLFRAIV
# Description: Increasing concentrations of the test compounds were incubated for 30 minutes with 0.5 mg neuronal membrane protein together with 0.5 nM [^3H]-NBTI in a Tris buffer (pH 7.4) at room temperature. The assays were quenched and membranes collected by rapid filtration. Filters were then solubilized and radioactivity determined by scintillation counting.
# male Mongolian gerbils = assay: Experimental stroke model (gerbil brain ischemia); format: in vivo; conditions: pretreatment with 500 mg/kg; bilateral carotid occlusion for 5 minutes; histology after seven days
# Description: In this test, male Mongolian gerbils were anesthetized with 2-3% halothane in N20:02 and the common carotid arteries exposed. Ischemia was then induced by bilateral occlusion of both common carotid arteries for 5 minutes. Seven days following the ischemic insult, brains were removed and processed for histology.
# Anesthetized male dogs = format: in vivo; conditions: n = 6
# Description: Anesthetized male dogs were instrumented to measure regional myocardial wall thickening during right atrial pacing in the presence of a stenosis of the left anterior descending artery (Young & Mullane Am. J. Physiol. in press (1991)). In Table XIA, the effects on wall thickening and arterial pressure of six repeated episodes of pacing in animals treated with a continuous IV infusion of 50 µg/kg/min of the test compound administered post-pace #1 are compared with saline-treated control animals. […]
# [7] = 5 µM test compound, 1 µM [3H] adenosine, 15 minutes
# [8] = 50 µM test compound, 1 µM [3H] adenosine, 15 minutes
# [9] = Cavia porcellus, concentration which inhibited electrically stimulated contraction by 50%, read-out: IC50
# [10] = concentration which inhibited electrically stimulated contraction by 50%, read-out: IC50
SMILES,Function Recovery % Baseline LVDP (% of hearts) (Isolated rat hearts; 5 µM in perfusion buffer),Function Recovery % Baseline LVDP (% of hearts) (Isolated rat hearts; 20 µM in perfusion buffer),"IC50 ([4]; Homo sapiens, Platelet) [µM]",Tissue Adenosine Levels (% Increase vs. Saline) (ischemic rat hearts) [%],EC50 [6] [µM],"IC50 [2, 10] [µM]",Function Recovery % Baseline LVDP (% of hearts) (Isolated rat hearts; 1 µM in perfusion buffer),IC50 ([2]; Cavia porcellus) [µM],further results
"NC(=O)c1ncn([C@@H]2O[C@H](CO)[C@@H](O)[C@H]2O)c1N [Compound No. 1, 5-amino-1-beta-D-ribofuranosylimidazole-4-carboxamide, reference compound]",64.2±1.5 (6) %,79.4±1.3 (34) %,2700,30,> 1000,–,–,–,"inhibition at 5 µM [1, 7]: 5 ± 2%; inhibition at 50 µM [1, 8]: 10 ± 1%; IC50 [2, 9]: > 1000 µM; bioavailability ([3]; beagle, oral): 8%; half-life ([3]; beagle): 0.35 h; Extracellular Adenosine Levels ([5]; 16 hours at 37°C, then no glucose, antimycin A, deoxycoformycin): 1.64 ± 0.12 µM; Extracellular Adenosine Increase (%) ([5]; 16 hours, increase versus control): 15.5%"
"Nc1c(C(=O)NC2CCCC2)ncn1[C@@H]1O[C@H](CO)[C@@H](O)[C@H]1O [Compound No. 10, 5-Amino-1-beta-D-ribofuranosylimidazole-4-N-(cyclopentyl)carboxamide]",83.7±0.7 (6) %,84.5±3.5 (2) %,–,–,350,–,–,–,effect in a gerbil model of brain ischemia (hippocampal pyramidal cell survival) (male Mongolian gerbils): protective effects; Tissue Adenosine Levels (% Increase vs. Saline) (ischemic rat hearts; listed as 10 (1-186)): 79% and 68%
"Nc1c(C(=O)NCc2ccccc2)ncn1[C@@H]1O[C@H](CO)[C@@H](O)[C@H]1O [Compound No. 11, 5-Amino-1-beta-D-ribofuranosylimidazole-4-N-(benzyl)carboxamide]",77.2±5.8 (7) %,85.7±6.2 (3) %,–,–,–,200,–,–,effect in a gerbil model of brain ischemia (hippocampal pyramidal cell survival) (male Mongolian gerbils): protective effects; Tissue Adenosine Levels (% Increase vs. Saline) (ischemic rat hearts; listed as 11 (1-226)): 53% and 45%
"Nc1c(C(=O)NC2CC2)ncn1[C@@H]1O[C@H](CO)[C@@H](O)[C@H]1O [Compound No. 12, 5-Amino-1-beta-D-ribofuranosylimidazole-4-N-(cyclopropyl)carboxamide]",–,–,–,29,–,400,–,–,–
"NC[C@H]1O[C@@H](n2cnc(C(N)=O)c2N)[C@H](O)[C@@H]1O [Compound No. 21, 5'-Amino-5'-deoxy-AICA-riboside]",81.0±3.2 (8) %,–,–,–,–,–,77.0±4.4 (10) %,–,"IC50 [2, 9]: 800 µM; bioavailability ([3]; po): 71%; half-life [3]: 1.3 h"
"Nc1c(C(=O)NCc2ccc([N+](=O)[O-])cc2)ncn1[C@@H]1O[C@H](CO)[C@@H](O)[C@H]1O [Compound No. 23, 5-Amino-1-β-D-ribofuranosyl-imidazole-4-N-[(4-nitrophenyl)methyl]carboxamide]",–,–,38,–,3,–,79.0±2.3 (6) %,3,inhibition at 5 µM [1]: 27 ± 4%; inhibition at 50 µM [1]: 63 ± 2%
"NC(=O)c1nc(S)n([C@@H]2O[C@H](CO)[C@@H](O)[C@H]2O)c1N [Compound No. 27, 5-amino-2-thio-1-β-D-ribofuranosyl imidazole-4-carboxamide]",74.6±3.7 (7) %,–,950,–,344,–,–,500,–
"Nc1c(C(=O)NCc2ccc(Cl)cc2)ncn1[C@@H]1O[C@H](CO)[C@@H](O)[C@H]1O [Compound No. 29, 5-amino-1-β-D-ribofuranosylimidazole-4-N-[(4-Chlorophenyl)methyl]carboxamide]",–,–,90,–,100,–,76.7±2.9 (7) %,60,inhibition at 5 µM [1]: 41 ± 11%; inhibition at 50 µM [1]: 67 ± 8%
"Nc1c(C(=O)NN2CCCCC2)ncn1[C@@H]1O[C@H](CO)[C@@H](O)[C@H]1O [Compound No. 36, 5-amino-4-(1-piperidinocarbamoyl)-1-β-D-ribofuranosylimidazole]",–,–,–,34,–,–,–,–,–
"Cl.NC[C@H]1O[C@@H](n2cnc(C(=O)NCc3ccc(Cl)cc3)c2N)[C@H](O)[C@@H]1O [Compound No. 53, 5-Amino-1-(5-amino-5-deoxy-β-D-ribofuranosyl)imidazole-4-N-[(4-chlorophenyl)methyl]carboxamide Hydrochloride]",85.6±1.8 (10) %,–,–,–,~100,70,–,–,"Inhibition of Adenosine Utilization (%) [1, 7]: 34 ± 4%; Inhibition of Adenosine Utilization (%) [1, 8]: 58 ± 2%; Half Life [3]: 5.61 h; Absolute Oral Bioavailability % ([3]; po): 53 (1-468) 32%; IC50 [4]: 150 µM; % of NON-ISCHEMIC WALL THICKENING (Anesthetized male dogs; Pace # 1 (infusion started post-pace #1)): 49.5 ± 6.5%; % of NON-ISCHEMIC WALL THICKENING (Anesthetized male dogs; Pace # 2, continuous IV infusion of 50 µg/kg/min): 46.7 ± 7.0%; % of NON-ISCHEMIC WALL THICKENING (Anesthetized male dogs; Pace # 3, continuous IV infusion of 50 µg/kg/min): 54.2 ± 9.4 %; % of NON-ISCHEMIC WALL THICKENING (Anesthetized male dogs; Pace # 4, continuous IV infusion of 50 µg/kg/min): 48.1 ± 7.6 %; % of NON-ISCHEMIC WALL THICKENING (Anesthetized male dogs; Pace # 5, continuous IV infusion of 50 µg/kg/min): 47.5 ± 8.2 %; % of NON-ISCHEMIC WALL THICKENING (Anesthetized male dogs; Pace # 6, continuous IV infusion of 50 µg/kg/min): 42.1 ± 7.0 %"
